Experimental data from patent US9144239B2, “Macrocyclic picolinamides as fungicides” (DOW AGROSCIENCES LLC, priority 2012, dated 2015).
Read-outs that look alike come from different tables or passages of the source.

Experiments:
Type in all cases: in vivo
[1] = tested on: Puccinia triticina; synonym: Puccinia recondita f. sp. tritici; experiment: Fungicidal activity: wheat brown rust (PUCCRT), wheat seedlings
Experimental: Technical grades of materials were dissolved in acetone, which were then mixed with nine volumes of water containing 110 ppm Triton X-100. The fungicide solutions were applied onto wheat seedlings using an automated booth sprayer to run-off. All sprayed plants were allowed to air dry prior to further handling. Wheat plants (variety Yuma) were grown from seed in a greenhouse in 50% mineral soil/50% soil-less Metro mix until the first leaf was fully emerged, with 7-10 seedlings per pot. These plants were inoculated with an aqueous spore suspension of Septoria tritici either prior to or after fungicide treatments. After inoculation the plants were kept in 100% relative humidity (one day in a dark dew chamber followed by two to three days in a lighted dew chamber at 20° C.) to permit spores to germinate and infect the leaf. The plants were then transferred to a greenhouse set at 20° C. for disease to develop. When disease symptoms were fully expressed on the 1st leaves of untreated plants, infection levels were assessed on a scale of 0 to 100 percent disease severity. Percent disease control was calculated using the ratio of disease severity on treated plants relative to untreated plants. Evaluation of Fungicidal Activity: Wheat Brown Rust (Puccinia […]; Synonym: Puccinia recondita f. Sp. Tritici; Bayer Code PUCCRT) Wheat plants (variety Yuma) were grown from seed in a greenhouse in 50% mineral soil/50% soil-less Metro mix until the first leaf was fully emerged, with 7-10 seedlings per pot. These plants were inoculated with an aqueous spore suspension of Puccinia triticina either prior to or after fungicide treatments. After inoculation the plants were kept in a dark dew room at 22° C. with 100% relative humidity overnight to permit spores to germinate and infect the leaf. The plants were then transferred to a greenhouse set at 24° C. for disease to develop. Fungicide formulation, application and disease assessment followed the procedures as described in the Example A.

[2] = tested on: Mycosphaerella graminicola; anamorph: Septoria tritici; experiment: Fungicidal activity: leaf blotch of wheat (SEPTTR), wheat seedlings; settings: Zymoseptoria tritici
Experimental: Evaluation of Fungicidal Activity: Leaf Blotch of Wheat (Mycosphaerella Graminicola; Anamorph: Septoria tritici; Bayer Code […]) Technical grades of materials were dissolved in acetone, which were then mixed with nine volumes of water containing 110 ppm Triton X-100. The fungicide solutions were applied onto wheat seedlings using an automated booth sprayer to run-off. All sprayed plants were allowed to air dry prior to further handling. Wheat plants (variety Yuma) were grown from seed in a greenhouse in 50% mineral soil/50% soil-less Metro mix until the first leaf was fully emerged, with 7-10 seedlings per pot. These plants were inoculated with an aqueous spore suspension of Septoria tritici either prior to or after fungicide treatments. After inoculation the plants were kept in 100% relative humidity (one day in a dark dew chamber followed by two to three days in a lighted dew chamber at 20° C.) to permit spores to germinate and infect the leaf. The plants were then transferred to a greenhouse set at 20° C. for disease to develop. When disease symptoms were fully expressed on the 1st leaves of untreated plants, infection levels were assessed on a scale of 0 to 100 percent disease severity. Percent disease control was calculated using the ratio of disease severity on treated plants relative to untreated plants.

[3] = tested on: Puccinia triticina; synonym: Puccinia recondita f. sp. tritici; experiment: Fungicide mobility (dropline mobility test): wheat brown rust (PUCCRT); settings: 1 ug/leaf
Experimental: Evaluation of Fungicide Mobility: Wheat Brown Rust (Puccinia triticina; Synonym: Puccinia recondita f. sp. tritici; Bayer Code PUCCRT) “Yuma” wheat seedlings were used in the test. One mg of compound was dissolved in 9 μl of EC blank (emulsifiable concentrate) and 500 μl of acetone. Acetone was then evaporated overnight by leaving the vial open in a fume hood. Two milliliters of water containing 110 ppm Triton X-100 was added to each vial to prepare application solutions. A 2 μl drop of formulated material was applied to a marked line on the adaxial surface 5 cm from the leaf tip of the primary leaves. The primary leaves were kept in a horizontal position. Each treatment had 6 replicates. Plants were inoculated with PUCCRT 1-day after (1DPM) or 3-day prior to (3DCM) compound applications. When rust was fully expressed on primary leaves on control plants, the zone of treated leaves that was disease-free in the acropetal direction was measured with a ruler and converted to percent of the distance from marked line to leaf tip.

[4] = 24 h, 100 ppm, 1 Day Protectant, wheat, read-out: Disease Control PUCCRT 1DP
[5] = 72 h, 100 ppm, 3 Day Curative, wheat, read-out: Disease Control PUCCRT 3DC
[6] = 24 h, 100 ppm, 1 Day Protectant, wheat, read-out: Disease Control SEPTTR 1DP
[7] = 72 h, 100 ppm, 3 Day Curative, wheat, read-out: Disease Control SEPTTR 3DC
[8] = 24 h, 1 Day Protectant Mobility, read-out: Dropline Mobility Test PUCCRT 1DPM
[9] = 72 h, 3 Day Curative Mobility, read-out: Dropline Mobility Test PUCCRT 3DCM
[10] = 24 h, read-out: Disease Control PUCCRT 1DP
[11] = 72 h, read-out: Disease Control PUCCRT 3DC
[12] = 24 h, read-out: Disease Control SEPTTR 1DP
[13] = 72 h, read-out: Disease Control SEPTTR 3DC

SMILES | pest or weed control at 100 ppm [1, 4] [%] | pest or weed control at 100 ppm [1, 5] [%] | pest or weed control at 100 ppm [2, 6] [%] | pest or weed control at 100 ppm [2, 7] [%] | pest or weed control at 1 µg/leaf [3, 8] [%] | pest or weed control at 1 µg/leaf [3, 9] [%] | pest or weed control at 100 ppm [1, 10] [%] | pest or weed control at 100 ppm [1, 11] [%] | pest or weed control at 100 ppm [2, 12] [%] | pest or weed control at 100 ppm [2, 13] [%]
CCCCCO[C@H]1[C@H](C)OC(=O)[C@@H](NC(=O)c2nccc(OC)c2OCOC(C)=O)COC[C@@H]1OCCCCC [Compound 64] | 80 to 100 | 80 to 100 | 80 to 100 | 80 to 100 | 0 to 80 | 0 to 80 | – | – | – | –
COc1ccnc(C(=O)N[C@H]2COC[C@H](Oc3ccccc3)[C@@H](Oc3ccccc3)[C@H](C)OC2=O)c1OCOC(=O)C(C)C [Compound 234] | 80 to 100 | 80 to 100 | 80 to 100 | 80 to 100 | 80 to 100 | – | – | – | – | –
CCCO[C@H]1[C@H](C)OC(=O)[C@@H](NC(=O)c2nccc(OC)c2O)COC[C@@H]1OCCC [Compound 58, 3-hydroxy-4-methoxy-N-((3S,7S,8S,9S)-9-methyl-2-oxo-7,8-dipropoxy-1,5-dioxonan-3-yl)picolinamide] | – | – | – | – | 80 to 100 | 0 to 80 | 80 to 100 | 80 to 100 | 0 to 80 | 0 to 80
COc1ccnc(C(=O)N[C@H]2COC[C@H](Oc3ccccc3)[C@@H](Oc3ccccc3)[C@H](C)OC2=O)c1O [Compound 81, 3-hydroxy-4-methoxy-N-((3S,7S,8S,9S)-9-methyl-2-oxo-7,8-diphenoxy-1,5-dioxonan-3-yl)picolinamide] | – | – | – | – | 80 to 100 | 0 to 80 | 80 to 100 | 80 to 100 | 80 to 100 | 80 to 100
COc1ccnc(C(=O)N[C@H]2COC[C@H](OCC(C)C)[C@@H](OC3CCCCC3)[C@H](C)OC2=O)c1O [Compound 75] | 80 to 100 | 80 to 100 | 80 to 100 | 0 to 80 | 0 to 80 | 0 to 80 | – | – | – | –
CCCO[C@H]1[C@H](C)OC(=O)[C@@H](NC(=O)c2nccc(OC)c2OCOC(C)=O)COC[C@@H]1OCCC [Compound 61] | 80 to 100 | 80 to 100 | 80 to 100 | 80 to 100 | 80 to 100 | 0 to 80 | – | – | – | –
COc1ccnc(C(=O)N[C@H]2COC[C@H](OC3CCCCC3)[C@@H](OCC(C)C)[C@H](C)OC2=O)c1OCOC(C)=O [Compound 76] | 80 to 100 | 80 to 100 | 80 to 100 | 80 to 100 | 80 to 100 | 0 to 80 | – | – | – | –
COc1ccnc(C(=O)N[C@H]2COC[C@H](OCC(C)C)[C@@H](OCC(C)C)[C@H](C)OC2=O)c1OC(C)=O [Compound 238] | 80 to 100 | 80 to 100 | 80 to 100 | 80 to 100 | 80 to 100 | 80 to 100 | – | – | – | –
CCCCCO[C@H]1[C@H](C)OC(=O)[C@@H](NC(=O)c2nccc(OC)c2O)COC[C@@H]1OCCCCC [Compound 62] | – | 80 to 100 | – | 80 to 100 | 0 to 80 | – | – | – | – | –
COCCC(=O)Oc1c(OC)ccnc1C(=O)N[C@H]1COC[C@H](Oc2ccccc2)[C@@H](Oc2ccccc2)[C@H](C)OC1=O [Compound 235] | 80 to 100 | 80 to 100 | 80 to 100 | 80 to 100 | 0 to 80 | – | – | – | – | –
CCCCO[C@H]1COC[C@H](NC(=O)c2nccc(OC)c2O)C(=O)O[C@@H](C)[C@@H]1OC(=O)c1ccccc1 [Compound 66] | 80 to 100 | 80 to 100 | 80 to 100 | 0 to 80 | 0 to 80 | 0 to 80 | – | – | – | –
COc1ccnc(C(=O)N[C@H]2COC[C@H](OCCCC(F)(F)F)[C@@H](OCCCC(F)(F)F)[C@H](C)OC2=O)c1O [Compound 67] | 80 to 100 | 0 to 80 | 0 to 80 | 0 to 80 | 0 to 80 | 0 to 80 | – | – | – | –
CCCCO[C@H]1COC[C@H](NC(=O)c2nccc(OC)c2OCOC(C)=O)C(=O)O[C@@H](C)[C@@H]1OC(=O)c1ccccc1 [Compound 69] | 80 to 100 | 80 to 100 | 80 to 100 | 80 to 100 | 0 to 80 | 0 to 80 | – | – | – | –
COc1ccnc(C(=O)N[C@H]2COC[C@H](Oc3ccccc3)[C@@H](Oc3ccccc3)[C@H](C)OC2=O)c1OC(C)=O [Compound 236] | 80 to 100 | 80 to 100 | 80 to 100 | 80 to 100 | 0 to 80 | – | – | – | – | –
COCCC(=O)Oc1c(OC)ccnc1C(=O)N[C@H]1COC[C@H](OCC(C)C)[C@@H](OCC(C)C)[C@H](C)OC1=O [Compound 237, 2-(((3S,7S,8S,9S)-7,8-diisobutoxy-9-methyl-2-oxo-1,5-dioxonan-3-yl)carbamoyl)-4-methoxypyridin-3-yl 3-methoxypropanoate] | 80 to 100 | 80 to 100 | 80 to 100 | 80 to 100 | 80 to 100 | 80 to 100 | – | – | – | –
COc1ccnc(C(=O)N[C@H]2COC[C@H](OC3CCCCC3)[C@@H](O)[C@H](C)OC2=O)c1O [Compound 74] | 0 to 80 | 0 to 80 | 0 to 80 | 0 to 80 | 0 to 80 | 0 to 80 | – | – | – | –
COc1ccnc(C(=O)N[C@H]2CO[C@@H](C)[C@H](OCC(C)C)[C@@H](OCC(C)C)[C@H](C)OC2=O)c1O [Compound 26] | 80 to 100 | 80 to 100 | 80 to 100 | 0 to 80 | 0 to 80 | – | – | – | – | –
COc1ccnc(C(=O)N[C@@H]2COC[C@H](OCc3ccccc3)[C@@H](OCc3ccccc3)[C@@H](C)OC2=O)c1O [Compound 30, N-((3R,7S,8S,9R)-7,8-bis(benzyloxy)-9-methyl-2-oxo-1,5-dioxonan-3-yl)-3-hydroxy-4-methoxypicolinamide] | – | – | – | – | – | – | 0 to 80 | 0 to 80 | 0 to 80 | 0 to 80
COc1ccnc(C(=O)N[C@H]2COC[C@H](OCC(C)C)[C@@H](OCC(C)C)[C@@H](COCC(C)C)OC2=O)c1OCOC(C)=O [Compound 17] | 0 to 80 | 0 to 80 | 0 to 80 | – | – | – | – | – | – | –
